Experiments:
[1] = molecular target: T1, Prostaglandin G/H synthase 1 (Homo sapiens, UniProt P23219); assay type: functional
Thromboxane A2 receptor = molecular target: T2, Thromboxane A2 receptor (Homo sapiens, UniProt P21731); assay type: functional, cell-based
T2 sequence (P21731 whole entry): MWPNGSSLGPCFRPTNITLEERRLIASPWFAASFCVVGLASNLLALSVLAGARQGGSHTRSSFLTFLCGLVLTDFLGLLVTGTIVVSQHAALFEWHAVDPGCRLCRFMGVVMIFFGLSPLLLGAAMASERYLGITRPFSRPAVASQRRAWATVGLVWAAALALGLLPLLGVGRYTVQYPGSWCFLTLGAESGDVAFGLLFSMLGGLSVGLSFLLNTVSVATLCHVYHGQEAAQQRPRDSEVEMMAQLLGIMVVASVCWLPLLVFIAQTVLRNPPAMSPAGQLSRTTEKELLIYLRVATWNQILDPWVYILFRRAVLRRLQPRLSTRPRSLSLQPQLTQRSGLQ

[2] = molecular target: T3, Muscarinic acetylcholine receptor M2 (Homo sapiens, UniProt P08172)
T3 sequence (P08172 whole entry): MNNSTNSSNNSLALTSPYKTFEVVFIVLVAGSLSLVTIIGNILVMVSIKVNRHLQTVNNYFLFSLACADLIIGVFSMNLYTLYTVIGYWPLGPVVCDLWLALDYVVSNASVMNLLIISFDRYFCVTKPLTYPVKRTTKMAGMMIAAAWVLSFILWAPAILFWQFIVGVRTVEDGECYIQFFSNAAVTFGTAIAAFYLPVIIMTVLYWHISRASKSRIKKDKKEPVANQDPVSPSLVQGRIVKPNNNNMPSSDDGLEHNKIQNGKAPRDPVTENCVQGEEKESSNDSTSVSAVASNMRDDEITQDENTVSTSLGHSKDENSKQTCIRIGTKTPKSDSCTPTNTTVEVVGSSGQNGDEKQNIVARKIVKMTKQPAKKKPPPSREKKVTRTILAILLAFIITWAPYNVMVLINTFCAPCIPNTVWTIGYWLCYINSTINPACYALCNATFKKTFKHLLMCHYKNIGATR

Prothrombin = Prothrombin (Homo sapiens, UniProt P00734); assay type: functional
Histamine H3 receptor = Histamine H3 receptor (Homo sapiens, UniProt Q9Y5N1)
Bile salt export pump = Bile salt export pump (Homo sapiens, UniProt O95342); assay type: functional
Acetylcholinesterase = Acetylcholinesterase (Homo sapiens, UniProt P22303); assay type: functional
[3] = molecular target: T4, 5-hydroxytryptamine receptor 1A (Homo sapiens, UniProt P08908)
T4 sequence (P08908 whole entry): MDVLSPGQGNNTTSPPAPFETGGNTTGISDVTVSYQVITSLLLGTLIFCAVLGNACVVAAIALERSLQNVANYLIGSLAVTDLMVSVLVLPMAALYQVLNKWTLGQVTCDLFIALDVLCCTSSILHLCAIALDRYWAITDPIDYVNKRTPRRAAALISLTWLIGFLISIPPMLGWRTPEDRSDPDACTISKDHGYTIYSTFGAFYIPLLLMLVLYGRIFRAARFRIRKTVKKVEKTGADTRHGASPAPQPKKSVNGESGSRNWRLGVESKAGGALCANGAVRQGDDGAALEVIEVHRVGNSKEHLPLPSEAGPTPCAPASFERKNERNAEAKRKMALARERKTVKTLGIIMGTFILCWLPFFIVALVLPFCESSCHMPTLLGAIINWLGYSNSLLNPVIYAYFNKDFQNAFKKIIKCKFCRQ

[4] = molecular target: cGMP-inhibited 3',5'-cyclic phosphodiesterase 3A (Homo sapiens, UniProt Q14432); assay type: functional
[5] = molecular target: T5, Alpha-2A adrenergic receptor (Homo sapiens, UniProt P08913)
T5 sequence (P08913 whole entry): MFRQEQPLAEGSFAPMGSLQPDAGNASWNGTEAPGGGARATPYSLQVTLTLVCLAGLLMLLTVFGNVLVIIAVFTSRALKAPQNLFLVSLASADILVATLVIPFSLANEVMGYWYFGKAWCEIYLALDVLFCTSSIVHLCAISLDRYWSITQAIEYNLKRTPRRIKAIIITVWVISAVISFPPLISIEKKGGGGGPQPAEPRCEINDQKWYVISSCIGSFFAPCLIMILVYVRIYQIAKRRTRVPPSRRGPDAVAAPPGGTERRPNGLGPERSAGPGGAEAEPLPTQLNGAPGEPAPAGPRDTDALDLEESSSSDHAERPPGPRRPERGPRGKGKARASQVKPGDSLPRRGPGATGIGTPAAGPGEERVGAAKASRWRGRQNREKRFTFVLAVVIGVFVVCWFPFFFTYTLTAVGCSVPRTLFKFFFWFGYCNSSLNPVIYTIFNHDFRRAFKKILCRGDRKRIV

[6] = molecular target: T1, Prostaglandin G/H synthase 1; assay type: functional; remark: listed apart in the source
[7] = molecular target: 3',5'-cyclic-AMP phosphodiesterase 4A (Homo sapiens, UniProt P27815); assay type: functional
D(3) dopamine receptor = D(3) dopamine receptor (Homo sapiens, UniProt P35462)
[8] = molecular target: Sodium-dependent dopamine transporter (Homo sapiens, UniProt Q01959)
[9] = molecular target: Voltage-gated inwardly rectifying potassium channel KCNH2 (Homo sapiens, UniProt Q12809); assay type: functional; settings: read-out: AC50
D(1A) dopamine receptor = D(1A) dopamine receptor (Homo sapiens, UniProt P21728)
Note: assay procedure not described here.

D(3) dopamine receptor, sequence (P35462 whole entry): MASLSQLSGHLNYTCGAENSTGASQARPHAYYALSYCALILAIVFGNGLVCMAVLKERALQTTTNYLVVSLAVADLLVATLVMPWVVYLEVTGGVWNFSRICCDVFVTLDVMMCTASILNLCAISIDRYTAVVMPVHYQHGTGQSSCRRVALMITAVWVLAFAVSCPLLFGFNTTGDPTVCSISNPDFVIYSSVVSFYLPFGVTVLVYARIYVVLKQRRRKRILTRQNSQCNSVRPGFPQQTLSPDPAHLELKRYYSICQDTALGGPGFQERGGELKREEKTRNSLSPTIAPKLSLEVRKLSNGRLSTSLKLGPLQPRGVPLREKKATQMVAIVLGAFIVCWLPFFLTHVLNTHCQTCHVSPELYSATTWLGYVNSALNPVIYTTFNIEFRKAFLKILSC
Histamine H3 receptor, sequence (Q9Y5N1 whole entry): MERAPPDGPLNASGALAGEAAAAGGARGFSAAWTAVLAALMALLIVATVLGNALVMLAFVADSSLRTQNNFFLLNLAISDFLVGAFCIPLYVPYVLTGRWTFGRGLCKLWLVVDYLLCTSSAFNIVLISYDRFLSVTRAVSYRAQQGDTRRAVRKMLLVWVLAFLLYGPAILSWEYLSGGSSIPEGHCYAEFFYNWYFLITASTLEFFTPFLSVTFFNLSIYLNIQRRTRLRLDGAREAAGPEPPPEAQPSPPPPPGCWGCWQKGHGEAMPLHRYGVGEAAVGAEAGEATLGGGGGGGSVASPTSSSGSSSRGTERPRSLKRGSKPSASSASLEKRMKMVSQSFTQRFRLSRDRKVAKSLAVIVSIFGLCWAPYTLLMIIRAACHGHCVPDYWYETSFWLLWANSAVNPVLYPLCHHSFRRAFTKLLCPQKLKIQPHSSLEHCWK
T1 sequence (P23219 whole entry): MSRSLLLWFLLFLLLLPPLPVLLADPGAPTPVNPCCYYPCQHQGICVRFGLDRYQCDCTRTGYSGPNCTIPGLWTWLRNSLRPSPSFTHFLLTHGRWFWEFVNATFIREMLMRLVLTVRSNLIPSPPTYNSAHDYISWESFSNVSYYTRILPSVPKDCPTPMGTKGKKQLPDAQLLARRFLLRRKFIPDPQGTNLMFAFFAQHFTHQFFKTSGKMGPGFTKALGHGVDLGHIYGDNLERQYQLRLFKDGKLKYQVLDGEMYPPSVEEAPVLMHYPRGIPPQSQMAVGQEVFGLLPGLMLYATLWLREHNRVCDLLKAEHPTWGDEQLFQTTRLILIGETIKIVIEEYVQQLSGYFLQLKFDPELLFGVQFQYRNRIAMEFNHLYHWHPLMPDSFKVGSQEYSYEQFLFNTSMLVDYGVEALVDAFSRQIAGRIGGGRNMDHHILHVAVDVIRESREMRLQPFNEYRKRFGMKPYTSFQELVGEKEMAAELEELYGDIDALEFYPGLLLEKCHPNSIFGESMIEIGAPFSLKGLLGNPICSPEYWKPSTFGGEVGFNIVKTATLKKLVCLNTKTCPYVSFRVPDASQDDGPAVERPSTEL
Voltage-gated inwardly rectifying potassium channel KCNH2, sequence (Q12809 whole entry): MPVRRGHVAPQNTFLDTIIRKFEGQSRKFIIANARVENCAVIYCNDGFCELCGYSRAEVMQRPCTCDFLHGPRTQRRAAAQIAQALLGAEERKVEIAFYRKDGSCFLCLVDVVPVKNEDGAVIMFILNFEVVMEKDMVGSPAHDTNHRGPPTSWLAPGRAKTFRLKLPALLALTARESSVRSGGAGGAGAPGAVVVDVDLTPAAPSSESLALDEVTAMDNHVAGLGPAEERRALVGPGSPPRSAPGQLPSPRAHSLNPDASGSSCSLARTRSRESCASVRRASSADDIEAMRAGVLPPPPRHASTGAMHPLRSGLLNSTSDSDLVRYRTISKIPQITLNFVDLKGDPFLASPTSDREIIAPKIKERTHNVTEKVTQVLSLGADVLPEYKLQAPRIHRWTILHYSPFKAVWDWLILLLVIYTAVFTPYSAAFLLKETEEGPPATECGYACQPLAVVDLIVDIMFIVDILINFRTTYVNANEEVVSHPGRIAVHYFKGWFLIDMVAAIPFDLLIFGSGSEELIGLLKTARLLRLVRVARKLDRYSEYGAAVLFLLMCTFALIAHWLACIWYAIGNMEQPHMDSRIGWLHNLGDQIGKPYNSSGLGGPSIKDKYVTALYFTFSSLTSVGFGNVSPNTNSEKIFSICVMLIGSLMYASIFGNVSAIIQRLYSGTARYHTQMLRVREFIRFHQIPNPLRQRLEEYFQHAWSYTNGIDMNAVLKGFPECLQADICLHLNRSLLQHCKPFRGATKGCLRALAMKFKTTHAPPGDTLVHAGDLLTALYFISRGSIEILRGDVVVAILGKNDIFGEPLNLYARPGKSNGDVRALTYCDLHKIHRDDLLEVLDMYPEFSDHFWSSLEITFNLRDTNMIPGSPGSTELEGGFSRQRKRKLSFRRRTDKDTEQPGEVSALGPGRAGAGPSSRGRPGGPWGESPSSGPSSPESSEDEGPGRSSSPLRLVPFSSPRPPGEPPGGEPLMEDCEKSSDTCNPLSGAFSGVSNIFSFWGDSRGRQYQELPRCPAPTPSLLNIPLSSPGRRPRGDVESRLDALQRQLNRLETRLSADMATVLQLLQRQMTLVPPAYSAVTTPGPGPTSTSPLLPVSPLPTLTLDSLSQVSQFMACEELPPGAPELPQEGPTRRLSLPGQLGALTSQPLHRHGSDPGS
Bile salt export pump, sequence (O95342 whole entry): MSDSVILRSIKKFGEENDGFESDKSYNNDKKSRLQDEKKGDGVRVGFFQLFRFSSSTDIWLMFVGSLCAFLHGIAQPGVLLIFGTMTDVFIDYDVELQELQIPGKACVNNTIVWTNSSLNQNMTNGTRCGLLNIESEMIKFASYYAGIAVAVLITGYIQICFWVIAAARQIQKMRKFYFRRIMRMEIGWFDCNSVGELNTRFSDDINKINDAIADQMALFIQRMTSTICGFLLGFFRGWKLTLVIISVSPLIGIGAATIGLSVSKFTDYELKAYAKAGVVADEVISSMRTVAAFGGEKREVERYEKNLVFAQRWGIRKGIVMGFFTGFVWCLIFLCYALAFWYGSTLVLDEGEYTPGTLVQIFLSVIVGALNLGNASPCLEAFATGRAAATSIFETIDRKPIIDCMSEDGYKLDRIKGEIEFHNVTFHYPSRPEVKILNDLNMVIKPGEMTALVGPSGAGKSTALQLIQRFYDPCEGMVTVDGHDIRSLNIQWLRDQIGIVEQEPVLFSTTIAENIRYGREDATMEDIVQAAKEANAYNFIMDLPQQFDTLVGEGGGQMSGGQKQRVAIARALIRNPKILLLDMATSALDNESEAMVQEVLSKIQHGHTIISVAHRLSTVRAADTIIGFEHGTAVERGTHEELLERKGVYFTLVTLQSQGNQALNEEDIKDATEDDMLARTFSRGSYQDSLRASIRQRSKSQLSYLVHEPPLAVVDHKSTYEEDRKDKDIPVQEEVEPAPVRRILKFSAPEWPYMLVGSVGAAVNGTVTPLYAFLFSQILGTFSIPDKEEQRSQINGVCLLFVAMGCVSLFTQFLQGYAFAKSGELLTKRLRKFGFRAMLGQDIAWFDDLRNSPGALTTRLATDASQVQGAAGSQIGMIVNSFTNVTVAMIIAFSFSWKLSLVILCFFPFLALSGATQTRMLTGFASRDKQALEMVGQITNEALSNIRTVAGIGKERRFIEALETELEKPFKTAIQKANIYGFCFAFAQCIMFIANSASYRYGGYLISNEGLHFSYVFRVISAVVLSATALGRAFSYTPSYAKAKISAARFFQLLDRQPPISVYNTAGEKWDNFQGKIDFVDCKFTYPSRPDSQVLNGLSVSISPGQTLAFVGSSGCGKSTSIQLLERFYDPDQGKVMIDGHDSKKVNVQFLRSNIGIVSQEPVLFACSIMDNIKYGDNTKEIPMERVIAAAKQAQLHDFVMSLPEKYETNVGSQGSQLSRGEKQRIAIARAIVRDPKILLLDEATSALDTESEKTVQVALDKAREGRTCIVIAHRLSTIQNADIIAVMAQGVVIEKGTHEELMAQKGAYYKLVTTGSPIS
3',5'-cyclic-AMP phosphodiesterase 4A, sequence (P27815 whole entry): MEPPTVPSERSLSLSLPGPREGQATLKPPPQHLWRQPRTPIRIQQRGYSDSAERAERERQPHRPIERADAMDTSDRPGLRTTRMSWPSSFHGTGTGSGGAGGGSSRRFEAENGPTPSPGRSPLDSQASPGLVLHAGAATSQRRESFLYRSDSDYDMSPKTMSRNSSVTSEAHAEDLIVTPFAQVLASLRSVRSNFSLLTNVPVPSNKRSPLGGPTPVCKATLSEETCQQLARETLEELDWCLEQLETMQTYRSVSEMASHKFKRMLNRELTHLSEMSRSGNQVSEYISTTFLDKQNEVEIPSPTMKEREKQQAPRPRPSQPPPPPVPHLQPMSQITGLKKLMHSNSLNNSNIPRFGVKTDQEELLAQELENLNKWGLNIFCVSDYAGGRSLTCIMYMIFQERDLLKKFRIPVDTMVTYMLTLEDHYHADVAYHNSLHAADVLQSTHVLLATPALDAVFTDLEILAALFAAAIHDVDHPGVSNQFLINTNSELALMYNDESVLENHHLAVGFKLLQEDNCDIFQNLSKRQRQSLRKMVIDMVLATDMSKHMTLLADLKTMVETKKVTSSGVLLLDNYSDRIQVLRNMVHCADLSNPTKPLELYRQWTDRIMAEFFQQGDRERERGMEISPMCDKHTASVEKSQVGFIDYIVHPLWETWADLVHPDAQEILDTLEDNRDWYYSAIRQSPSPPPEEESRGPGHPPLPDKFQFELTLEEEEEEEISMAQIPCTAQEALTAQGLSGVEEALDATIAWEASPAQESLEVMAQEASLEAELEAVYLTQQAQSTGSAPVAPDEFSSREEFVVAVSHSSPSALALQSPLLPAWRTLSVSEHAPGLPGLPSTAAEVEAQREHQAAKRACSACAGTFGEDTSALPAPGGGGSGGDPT

SMILES | AC50 [1] [µM] | AC50 (Thromboxane A2 receptor) [µM] | AC50 [2] [µM] | AC50 (Prothrombin) [µM] | AC50 (Histamine H3 receptor) [µM] | AC50 (Bile salt export pump) [µM] | AC50 (Acetylcholinesterase) [µM] | AC50 [3] [µM] | AC50 [4] [µM] | AC50 [5] [µM] | AC50 [6] [µM] | AC50 [7] [µM] | AC50 (D(3) dopamine receptor) [µM] | AC50 [8] [µM] | AC50 [9] [µM] | AC50 (D(1A) dopamine receptor) [µM]
CC(=O)/N=c1/sc(S(N)(=O)=O)nn1C [METHAZOLAMIDE] | > 30 | > 30 | > 30 | > 30 | > 30 | > 300 | > 30 | > 30 | > 30 | > 30 | > 30 | > 30 | > 30 | > 30 | > 30 | > 30
CCOc1ccc2ccccc2c1C(=O)N[C@@H]1C(=O)N2[C@@H]1SC(C)(C)[C@@H]2C(=O)O [NAFCILLIN] | > 30 | > 30 | > 30 | > 30 | > 30 | 40 | > 30 | > 30 | > 30 | > 30 | > 30 | > 30 | > 30 | > 30 | > 30 | > 30
CC(=O)Oc1ccccc1C(=O)Nc1ncc([N+](=O)[O-])s1 [NITAZOXANIDE] | 9.53 | > 30 | > 30 | > 30 | > 30 | 45 | > 10 | > 30 | > 30 | > 30 | 0.0114 | > 30 | > 30 | > 30 |  | > 30
CCCCCCCCCCC[C@@H](C[C@@H]1OC(=O)[C@H]1CCCCCC)OC(=O)[C@H](CC(C)C)NC=O [ORLISTAT] | > 30 | > 30 | > 30 | > 30 | > 30 | > 300 |  | > 30 | > 30 | > 30 | > 30 | > 30 | > 30 | > 30 | > 30 | > 30
CC(C)COc1ccc(CNC(=O)N(Cc2ccc(F)cc2)C2CCN(C)CC2)cc1 [PIMAVANSERIN] | > 30 | 14.1 | 4.6 | > 30 | 28.7 | 65 | > 30 | > 30 | > 30 | > 30 | > 30 | > 30 | 2.66 | 12.8 |  | 5.78
CC(C)[N+](C)(CCOC(=O)C1c2ccccc2Oc2ccccc21)C(C)C [PROPANTHELINE] | > 30 | > 30 | 0.003 | > 30 | > 30 | > 300 | > 30 | > 30 | > 30 | > 30 | > 30 | > 30 | > 30 | > 30 | 2 | > 30
CNC(=O)c1cc(Oc2ccc(NC(=O)Nc3ccc(Cl)c(C(F)(F)F)c3)c(F)c2)ccn1 [REGORAFENIB] | 17.5 | > 30 | > 30 | > 30 | > 30 | 3 | > 30 | 1.42 | > 30 | > 10 | > 30 | > 30 | > 30 | 1.04 | > 10 | 5.61
